{"source": "patent US6841535B2", "about": "“Peptide-mediated transfection agents and methods of use” (Active Motif, priority 2000, dated 2005)", "format_in_all_cases": "cell-based", "key": {"[1]": {"system": "human HS68, murine NIH 3T3 fibroblasts or cos cells", "experiment": "Cellular localization of Pep-2", "details": "standard cell culture conditions; same at 4° C. or with okadaic acid", "excerpt": "The rationale in the design of the novel peptide vector, Pep-2, for efficient protein delivery into cells was to satisfy two major requirements: the ability to cross cell membranes and high affinity for protein sequences. To this aim, we elaborated a 21 residue peptide, designated Pep-2 ([…]-cya; SEQ ID NO:7), consisting of three domains: (1) a hydrophobic Trp-rich motif containing five Trp-residues (KETWWETWWTEW (SEQ ID NO:32)), required for efficient targeting to the cell membrane and for forming hydrophobic interactions with proteins, (2) a hydrophilic Lys-rich domain (KKKRKV (SEQ ID NO:33)) derived from the NLS of SV40 large T antigen, required to improve intracellular delivery and solubility of the peptide vector, and (3) a spacer domain (Ser-Gln-Pro), separating the two domains mentioned above, containing a Pro residue, which improves the flexibility and the integrity of both the hydrophobic and the hydrophilic domains. Peptides were acetylated at their N-terminus and synthesized with a cysteamine group at their C-terminus, so as to enable coupling of fluorescent probes (for example, FITC), useful for cellular localization of the peptide. We first investigated the ability of Pep-2 to penetrate into cells and characterized its subcellular localization. […]"}, "[2]": {"system": "human fibroblastic cell line (HS-68) and Cos-7", "experiment": "Pep-2-mediated delivery of FITC-labeled peptides into cells", "protocol": "(A) Pep-2-mediated delivery of Pep-A at 37 degrees C., (B) Pep-2-mediated delivery of Pep-B at 37 degrees C., (C) Pep-2-mediated delivery of Pep-A at 4 degrees C., (D) concentration dependence of Pep-2-mediated delivery of Pep-A. The efficiency of transfection was determined by counting fluorescent cells. Experiments were performed in the presence (dark bars) or absence (open bars) of serum and at 4 degrees C. (dashed bars).\nWe next evaluated the ability of Pep-2 to deliver peptides and LMW and HMW proteins into a human fibroblastic cell line (HS-68) and Cos-7. FITC-labeled Pep-A (51-mer) and Pep-B (32-mer) at a concentration of 5 10^−8 M were incubated with different concentrations of Pep-2 from 5 10^−8 M (ratio 1/1) to 2 10^−6 M (ratio 40/1), in serum-free cell culture medium for 30 minutes at 37° C. Cultured cells 0.5 to 1×10^6/35 mm^2 were then overlaid with the preformed Pep-2/peptide complexes for 30 minutes in the presence or absence of FCS. Complexes were formed prior to addition of FCS to avoid interactions between Pep-2 and serum proteins. Following this transfection step, fresh DMEM supplemented with serum was added to the cells for another 30 minutes, after which cells were extensively washed, and examined by fluorescence microscopy. […] Finally, we evaluated the effect of serum in the cell culture medium on the efficiency of peptide transfection."}, "[3]": {"system": "human fibroblastic cell line (HS-68) and Cos-7", "experiment": "Pep-2-mediated delivery of GFP and β-Gal proteins into cells", "protocol": "The efficiency of transfection was determined by counting fluorescent cells or blue stained cells. (A) Control of beta gal in the absence of Pep-2, (B) Pep-2 delivery of beta gal at 37 degrees C., (C) Pep-2 delivery of beta gal at 4 degrees C., (D) Pep-2 delivery of GFP at 37 degrees C. (E) concentration dependent Pep-2 delivery of GFP. Experiments were performed in the absence (open bars) or presence (dark bars) of serum.\nWe next evaluated the ability of Pep-2 to deliver peptides and LMW and HMW proteins into a human fibroblastic cell line (HS-68) and Cos-7. FITC-labeled Pep-A (51-mer) and Pep-B (32-mer) at a concentration of 5 10^−8 M were incubated with different concentrations of Pep-2 from 5 10^−8 M (ratio 1/1) to 2 10^−6 M (ratio 40/1), in serum-free cell culture medium for 30 minutes at 37° C. Cultured cells 0.5 to 1×10^6/35 mm^2 were then overlaid with the preformed Pep-2/peptide complexes for 30 minutes in the presence or absence of FCS. Complexes were formed prior to addition of FCS to avoid interactions between Pep-2 and serum proteins. Following this transfection step, fresh DMEM supplemented with serum was added to the cells for another 30 minutes, after which cells were extensively washed, and examined by fluorescence microscopy. […] Conversely, we observed a large decrease in the efficiency of transfection at a ratio greater than 30/1, which may be explained by either precipitation or aggregation of Pep-2/peptide complexes to the cell membrane. […] Finally, we evaluated the effect of serum in the cell culture medium on the efficiency of peptide transfection.\nTo investigate protein delivery we chose to monitor cell delivery of three very different types of proteins: 30 kDa GFP, 119 kDa β-Gal, and specific antibodies. […] Cells were then extensively washed prior to observation and the efficiency of protein delivery was determined by counting fluorescent cells or by monitoring enzymatic β-galactosidase activity by X-Gal staining. […]"}, "[4]": {"system": "HS-68 and NIH 3T3 cell lines", "experiment": "Drug delivery by vector peptides (ANS and Bis-ANS)", "details": "transfection of ANS and Bis-ANS; incubated with peptide at a molar ratio of 1:20; 1 h", "protocol": "For investigation of drug delivery, we used the naphthalene derivatives ANS and Bis-ANS, which have intrinsic fluorescence. The drugs was incubated with peptide at a molar ratio of 1:20, followed by overlay of the complex onto cultured cells. This was followed by incubation for 1 h. Then cells were extensively washed and observed by microscopy.\n(§1) The results of the experiments testing the transfection properties of the peptides are presented as a table in which the sequences are aligned for optimal comparison: […]"}, "[5]": {"system": "HS-68 and NIH 3T3 cell lines", "experiment": "Protein delivery by vector peptides (GFP)", "details": "transfection of GFP; incubated with peptide at a molar ratio of 1:20; 1 h", "protocol": "(§2) We evaluated the ability of peptides designed according to principles described herein, as well as variants thereof, to deliver peptides and proteins into HS-68 and NIH 3T3 cell lines. Peptide delivery was performed with a 32 mer peptide (peptide B), and in some cases a […] peptide (peptide A). The peptides were fluorescently labeled. Peptides (5.0×10^−8M or 5.0×10^−7M) were incubated with one micromolar vector peptide in cell culture medium in the absence of serum for 30 min. Cultured cells (0.5 to 1.0×10^6) were then overlaid with the preformed peptide/vector peptide complexes in 500 μL DMEM for one hour in the presence or absence of FCS. Complexes were formed prior to addition of FCS to avoid interactions between ep-vector and serum proteins. Following this transfection step, fresh DMEM supplemented with serum was added for another hour. Then cells were extensively washed, fixed and analyzed by fluorescence microscopy.\nTo investigate protein delivery we tested the delivery into cells of the fluorescent protein GFP. The protein was incubated with peptide at a molar ratio of 1:20, followed by overlay of the complex onto cultured cells. This was followed by incubation for 1 h. Then cells were extensively washed and fixed with formalin before observation.\nas §1"}, "[6]": {"system": "HS-68 and NIH 3T3 cell lines", "experiment": "Peptide delivery by vector peptides (fluorescently labeled peptide B / peptide A)", "details": "transfection of fluorescently labeled peptide; one micromolar vector peptide; 1 h", "protocol": "as §2, §1"}, "Jurkat T and WI 38 cells": {"system": "Jurkat T and WI 38 cells", "experiment": "Pep-2 delivery of p27(kip1), cell cycle arrest in G1 (FACS, BrDu)", "details": "Pep-2 alone", "protocol": "The number of cells in the G1 phase was determined by BrDU incorporation.\nThe number of cells in the G1 phase was determined by FACs analysis.\np27(kip1) was expressed in E coli, and purified as a his-tagged protein. Pep-2/p27kip1 complexes were formed in PBS (500 μl of DMEM containing 50 nM of protein and 0.1 μM of Pep-2) and incubated for 30 min at 37° C. Jurkat T and WI 38 cells grown to 75% confluency were then overlaid with these preformed complexes. After 1 hr incubation at 37° C., fresh DMEM supplemented with 10% foetal calf serum was added to the cells, without removing the overlay of Pep-2/p27^Kip1, and cells were returned to the incubator for another 30 h. Experiments were performed on both non-synchronized and synchronized cells. The number of cells arrested in G1 was determined both by FACS analysis and BrDu incorporation."}}}
{"sequence": "KETWWETWWTEWSQPKKKRKV [Pep-2]", "values": [{"measurement": "subcellular localization", "setting": "[1]", "result": "nucleus"}, {"measurement": "effect of serum (FCS 10%) on efficiency of peptide delivery", "setting": "[2]", "result": "not affected"}, {"measurement": "cells with internalized fluorescent peptide localized to the nucleus", "setting": "[2]; Pep-2/Pep-A molar ratio of 20/1", "result": "more than 90%"}, {"measurement": "effect of 10% FCS on efficiency of protein delivery", "setting": "[3]", "result": "not affected"}, {"measurement": "cells containing fluorescent GFP staining in their cytoplasm", "setting": "[3]; 37 degrees C.", "result": "more than 80%"}, {"measurement": "cells exhibiting strong and uniform β-Gal activity", "setting": "[3]; X-Gal staining", "result": "All cells"}, {"measurement": "Drug", "setting": "[4]", "result": 5, "unit": "%"}, {"measurement": "Pro", "setting": "[5]", "result": 5, "unit": "%"}, {"measurement": "Pep", "setting": "[6]", "result": 5, "unit": "%"}, {"measurement": "effect on cell cycle progression", "setting": "Jurkat T and WI 38 cells", "result": "no effect on cell cycle progression"}]}
